According to ChEMBL document CHEMBL2069188, “Structural requirements for the antitubercular quaternized triflupromazine pharmacophore” (Bioorg Med Chem Lett, 2012):
≈ marks a conversion by molar mass, not a printed value.

System: Mycobacterium tuberculosis
Assay: Antitubercular activity against highly drug-resistant, non replicating, persistent Mycobacterium tuberculosis harboring Vibrio harveyii luciferase gene incubated under anaerobic condition measured after 28 hrs of aerobic recovery by LORA method
Type: functional

SMILES | MIC90
C[N+](C)(CCCN1c2ccccc2Sc2ccc(C(F)(F)F)cc21)Cc1ccc(Cl)cc1.[Cl-] | 7.8 µM
C[N+](C)(CCCN1c2ccccc2Sc2ccc(C(F)(F)F)cc21)Cc1ccc(I)cc1.[Br-] | 7.2 µM
C[N+](C)(CCCN1c2ccccc2Sc2ccc(C(F)(F)F)cc21)Cc1ccc(F)cc1.[Cl-] | 14.3 µM
C[N+](C)(CCCN1c2ccccc2Sc2ccc(C(F)(F)F)cc21)Cc1ccc(Br)cc1.[Br-] | 7.1 µM
FC(F)(F)c1ccc2c(c1)N(Cc1cn(Cc3ccc(Cl)cc3)nn1)c1ccccc1S2 | > 100 µM
CO[C@H]1/C=C/O[C@@]2(C)Oc3c(C)c(O)c4c(O)c(c(/C=N/N5CCN(C)CC5)c(O)c4c3C2=O)NC(=O)/C(C)=C\C=C\[C@H](C)[C@H](O)[C@@H](C)[C@@H](O)[C@@H](C)[C@H](OC(C)=O)[C@@H]1C [RIFAMPIN] | 0.61 µM (≈ 0.502 µg/mL)
